Laboratory results from ChEMBL document CHEMBL3872237, “Nitric oxide-donating derivatives of hederacolchiside A1: Synthesis and biological evaluation in vitro and in vivo as potential anticancer agents” (Bioorg Med Chem Lett, 2017).

Experiments:
[1] = Growth inhibition of human SMMC7721 cells after 48 hrs by MTT assay; assay type: functional, cell-based; conditions: SMMC-7721, 48 h
[2] = Antitumor activity against mouse H22 cells xenografted in nude Kunming mouse assessed as tumor growth inhibition at 10 mg/kg/day, iv for 14 days measured 24 hrs post last dose relative to control; assay type: functional; conditions: read-out: TGI
[3] = Growth inhibition of human HCT116 cells after 48 hrs by MTT assay; assay type: functional, cell-based; conditions: HCT-116, 48 h
Mus musculus [4] = experiment: Acute toxicity in mouse assessed as death at >168 mg/kg measured after 14 days; assay type: organism-based; conditions: in vivo, 336 h
Mus musculus [5] = experiment: Toxicity in nude Kunming mouse xenografted with mouse H22 cells assessed as mouse death at 10 to 20 mg/kg/day, iv for 14 days measured 24 hrs post last dose; assay type: organism-based; conditions: in vivo
[6] = Antitumor activity against mouse H22 cells xenografted in nude Kunming mouse assessed as tumor growth inhibition at 20 mg/kg/day, iv for 14 days measured 24 hrs post last dose relative to control; assay type: functional; conditions: read-out: TGI
[7] = Growth inhibition of human NCI-H460 cells after 48 hrs by MTT assay; assay type: functional, cell-based; conditions: NCI-H460, 48 h
[8] = Induction of NO release in DMSO incubated up to 6 hrs by Griess assay; assay type: physicochemical
[9] = Solubility of the compound; assay type: physicochemical
[10] = Haemolytic activity in New Zealand rabbit erythrocytes after 60 mins; assay type: ADME, cell-based, Oryctolagus cuniculus, Erythrocyte; conditions: read-out: HD50
[11] = Growth inhibition of human U251 cells after 48 hrs by MTT assay; assay type: functional, cell-based; conditions: U-251, 48 h
Mus musculus [12] = experiment: Acute toxicity in mouse assessed as death at <8 mg/kg measured up to 1 hr; assay type: organism-based; conditions: in vivo
[13] = Antitumor activity against mouse H22 cells xenografted in nude Kunming mouse assessed as tumor growth inhibition at 6 mg/kg/3 days for 5 times administered iv measured 24 hrs post last dose relative to control; assay type: functional; conditions: read-out: TGI
[14] = Antiproliferative activity against human U251 cells after 48 hrs by resazurin reduction assay; assay type: functional, cell-based; conditions: U-251, 48 h
[15] = Antiproliferative activity against human SMMC7721 cells after 48 hrs by resazurin reduction assay; assay type: functional, cell-based; conditions: SMMC-7721, 48 h
[16] = Antiproliferative activity against human NCI-H460 cells after 48 hrs by resazurin reduction assay; assay type: functional, cell-based; conditions: NCI-H460, 48 h
[17] = Antiproliferative activity against human HCT116 cells after 48 hrs by resazurin reduction assay; assay type: functional, cell-based; conditions: HCT-116, 48 h

| SMILES | IC50 [1] | inhibition in vivo at 10 mg/kg/day [2] | IC50 [3] | Activity (Mus musculus [4]) | Activity (Mus musculus [5]) | inhibition in vivo at 20 mg/kg/day [6] | IC50 [7] | Activity [8] | solubility [9] | HC50 at 1 h [10] | IC50 [11] | Activity (Mus musculus [12]) | inhibition in vivo at 6 mg/kg [13] | IC50 [14] | IC50 [15] | IC50 [16] | IC50 [17] |
| --- | --- | --- | --- | --- | --- | --- | --- | --- | --- | --- | --- | --- | --- | --- | --- | --- | --- |
| C[C@@H]1O[C@@H](O[C@H]2[C@H](O[C@H]3CC[C@]4(C)[C@H]5CC=C6[C@@H]7CC(C)(C)CC[C@]7(C(=O)OCCCOc7no[n+]([O-])c7S(=O)(=O)c7ccccc7)CC[C@@]6(C)[C@]5(C)CC[C@H]4C3(C)C)OC[C@H](O[C@@H]3O[C@H](CO)[C@@H](O)[C@H](O)[C@H]3O)[C@@H]2O)[C@H](O)[C@H](O)[C@H]1O | 1.9 µM | 38.3% | 6.5 µM | Non-Toxic | Non-Toxic | 51.5% | 3.1 µM | Active | Insoluble | 280 µM | 1.6 µM |  |  |  |  |  |  |
| CC(CCOc1no[n+]([O-])c1S(=O)(=O)c1ccccc1)OC(=O)[C@]12CCC(C)(C)C[C@H]1C1=CC[C@@H]3[C@@]4(C)CC[C@H](O[C@@H]5OC[C@H](O[C@@H]6O[C@H](CO)[C@@H](O)[C@H](O)[C@H]6O)[C@H](O)[C@H]5O[C@@H]5O[C@@H](C)[C@H](O)[C@@H](O)[C@H]5O)C(C)(C)[C@@H]4CC[C@@]3(C)[C@]1(C)CC2 (some centres not stated) | 3.7 µM |  | 11.2 µM |  |  |  | 6.2 µM |  |  |  | 2.3 µM |  |  |  |  |  |  |
| C[C@@H]1O[C@@H](O[C@H]2C(O[C@H]3CC[C@]4(C)[C@H]5CC=C6[C@@H]7CC(C)(C)CC[C@]7(C(=O)OC/C=C/COc7no[n+]([O-])c7S(=O)(=O)c7ccccc7)CC[C@@]6(C)[C@]5(C)CC[C@H]4C3(C)C)OC[C@H](O[C@@H]3O[C@H](CO)[C@@H](O)[C@H](O)[C@H]3O)[C@@H]2O)[C@H](O)[C@H](O)[C@H]1O (single isomer, unassigned) | 4.5 µM |  | 10.1 µM |  |  |  | 6.8 µM |  |  |  | 3.1 µM |  |  |  |  |  |  |
| C[C@@H]1O[C@@H](O[C@H]2C(O[C@H]3CC[C@]4(C)[C@H]5CC=C6[C@@H]7CC(C)(C)CC[C@]7(C(=O)OCCCCOc7no[n+]([O-])c7S(=O)(=O)c7ccccc7)CC[C@@]6(C)[C@]5(C)CC[C@H]4C3(C)C)OC[C@H](O[C@@H]3O[C@H](CO)[C@@H](O)[C@H](O)[C@H]3O)[C@@H]2O)[C@H](O)[C@H](O)[C@H]1O (single isomer, unassigned) | 2.6 µM |  | 7.3 µM |  |  |  | 3.4 µM | Active |  |  | 2.1 µM |  |  |  |  |  |  |
| C[C@@H]1O[C@@H](O[C@H]2C(O[C@H]3CC[C@]4(C)[C@H]5CC=C6[C@@H]7CC(C)(C)CC[C@]7(C(=O)O)CC[C@@]6(C)[C@]5(C)CC[C@H]4C3(C)C)OC[C@H](O[C@@H]3O[C@H](CO)[C@@H](O)[C@H](O)[C@H]3O)[C@@H]2O)[C@H](O)[C@H](O)[C@H]1O (single isomer, unassigned) [HEDERACOLCHISIDE A1] | 2.8 µM |  | 8.4 µM |  |  |  | 3.7 µM |  | Insoluble | 6.7 µM | 2.2 µM | Toxic | 47.5% | 2.2 to 8.4 µM | 2.2 to 8.4 µM | 2.2 to 8.4 µM | 2.2 to 8.4 µM |
| O=[N+]([O-])OCC(CO[N+](=O)[O-])O[N+](=O)[O-] [NITROGLYCERIN] |  |  |  |  |  |  |  | Active |  |  |  |  |  |  |  |  |  |
